Data: US12459899B2, “Isoquinolinone derivatives, method for preparing the same, and pharmaceutical composition for preventing or treating poly(ADP-ribose) polymerase-1-related diseases, comprising the same as active ingredient” (DIGMBIO. INC., priority 2019, dated 2025)

Target: PARP-1 (poly[ADP-ribose] polymerase 1) enzyme (Homo sapiens (Human), UniProt P09874)
Experiment: PARP-1 (poly[ADP-ribose] polymerase 1) enzyme inhibitory ability, Trevigen assay kit
Assay type: biochemical
Conditions: for inhibition at 0.001 µM: 1 nM compound, read-out: PAR P-1 Inhibitory ability at 1 nM
Description: In order to evaluate the PARP-1 (poly[ADP-ribose] polymerase 1) enzyme inhibitory ability of the compounds according to the present invention, an experiment was conducted as follows.
Specifically, in order to evaluate the PARP-1 (poly[ADP-ribose] polymerase 1) enzyme inhibitory ability of the compounds of Examples 1 to 276 according to the present invention, the PARP-1 (poly[ADP-ribose] polymerase 1) activity was investigated in the following manner using an assay kit purchased from Trevigen, Inc. (Catalog number: 4677-096-K). 50 μL of 1×PARP buffer (provided by Trevigen's kit) was dispensed into a 96-well plate coated with histones per each well, and then rehydrated for 30 minutes. After removing the 1×PARP buffer present in the well, PARP-1 (poly[ADP-ribose] polymerase 1) enzyme (0.5 unit/well) and 1 μM concentration or various concentrations of the compounds of Example 1 to 276 were added at room temperature and reacted for 10 minutes. Thereafter, each well was treated with 25 μL of 1×PARP cocktail (biotinylated NAD, activated DNA, provided by Trevigen's kit), and then reacted at room temperature for 1 hour. After the reaction was completed, each well was washed twice with PBS (7.5 mM Na2HPO4, 2.5 mM NaH2PO4, 145 mM NaCl) containing 0.1% triton X-100, and washed twice with PBS. Then, 50 μL of strep-HRP (streptavidin-linked peroxidase) was added and reacted at room temperature for 1 hour, and then washed twice with PBS containing 0.1% triton X-100, and washed twice with PBS. After removing all PBS, 50 μL of TACS-sapphire, a substrate, was added, and reacted at room temperature for 15 minutes while blocking the light. After the reaction was terminated by treatment with 50 μL of 5% phosphoric acid to each well, the absorbance was measured at 450 nm using a microplate reader Victor3 from PerkinElmer, Inc. to quantify the value.

PARP-1 (poly[ADP-ribose] polymerase 1) enzyme, sequence (P09874 whole entry): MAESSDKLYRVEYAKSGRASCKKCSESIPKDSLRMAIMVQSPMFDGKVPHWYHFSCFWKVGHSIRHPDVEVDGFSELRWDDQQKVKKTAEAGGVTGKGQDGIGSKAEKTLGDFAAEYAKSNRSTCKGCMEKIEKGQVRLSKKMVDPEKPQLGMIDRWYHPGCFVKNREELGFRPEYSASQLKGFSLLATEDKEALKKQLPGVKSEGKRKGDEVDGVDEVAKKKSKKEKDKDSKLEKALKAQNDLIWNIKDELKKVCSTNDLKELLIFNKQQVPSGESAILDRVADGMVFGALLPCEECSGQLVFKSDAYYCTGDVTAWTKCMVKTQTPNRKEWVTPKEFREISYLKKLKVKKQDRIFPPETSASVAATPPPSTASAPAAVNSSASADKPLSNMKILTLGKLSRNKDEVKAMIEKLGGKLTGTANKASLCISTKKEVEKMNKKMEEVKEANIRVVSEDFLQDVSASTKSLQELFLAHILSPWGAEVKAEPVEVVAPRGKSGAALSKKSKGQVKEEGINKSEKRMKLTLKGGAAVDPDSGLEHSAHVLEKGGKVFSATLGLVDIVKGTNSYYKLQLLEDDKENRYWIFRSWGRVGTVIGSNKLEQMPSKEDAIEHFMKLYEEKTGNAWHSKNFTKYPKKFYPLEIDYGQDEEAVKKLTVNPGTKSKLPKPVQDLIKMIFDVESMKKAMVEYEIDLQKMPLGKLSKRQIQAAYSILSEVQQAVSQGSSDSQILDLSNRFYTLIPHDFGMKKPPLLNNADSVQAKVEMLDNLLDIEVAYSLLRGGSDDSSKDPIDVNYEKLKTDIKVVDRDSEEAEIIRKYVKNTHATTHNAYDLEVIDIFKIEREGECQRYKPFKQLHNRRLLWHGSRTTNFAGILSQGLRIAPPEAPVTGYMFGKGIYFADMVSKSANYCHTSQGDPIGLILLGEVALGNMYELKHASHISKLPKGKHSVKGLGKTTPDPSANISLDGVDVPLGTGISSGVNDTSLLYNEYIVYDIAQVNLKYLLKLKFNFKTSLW

Row | inhibition at 0.001 µM [%] | IC50 (PARP-1 enzyme activity) [nM] | SMILES
1 | < 50 | – | Cc1ccc(F)c2c(=O)[nH]c(CCC(=O)N3CCN(c4ccc(F)cc4F)CC3)cc12 [Example 132, 3-(3-(4-(2,4-difluorophenyl)piperazin-1-yl)-3-oxopropyl)-8-fluoro-5-methylisoquinolin-1(2H)-one]
2 | < 50 | – | Cc1ccc(F)c2c(=O)[nH]c(CCC(=O)N3CCN(c4cccc(F)c4)CC3)cc12 [Example 142, 8-fluoro-3-(3-(4-(3-fluorophenyl)piperazin-1-yl)-3-oxopropyl)-5-methylisoquinolin-1(2H)-one]
3 | < 50 | – | N#Cc1ccc(N2CCN(CCCc3cc4ncccc4c(=O)[nH]3)CC2)cn1 [Example 226, 5-(4-(3-(5-oxo-5,6-dihydro-1,6-naphthyridin-7-yl)propyl)piperazin-1-yl)picolinonitrile]
4 | < 50 | – | N#Cc1ccc(NC2CCN(C(=O)CCc3cc4cccc(F)c4c(=O)[nH]3)CC2)cc1 [Example 256, 4-((1-(3-(8-fluoro-1-oxo-1,2-dihydroisoquinolin-3-yl)propanoyl)piperidin-4-yl)amino)benzonitrile]
5 | < 50 | – | N#Cc1ccc(N2CCN(CCCc3cc4cccc(F)c4c(=O)[nH]3)CC2)nc1 [Example 3, 6-(4-(3-(8-fluoro-1-oxo-1,2-dihydroisoquinolin-3-yl)propyl)piperazin-1-yl)nicotinonitrile]
6 | < 50 | – | Cc1cc(F)cc2c(=O)[nH]c(CCCN3CCN(c4ccc(C#N)cc4F)CC3)cc12 [Example 37, 3-fluoro-4-(4-(3-(7-fluoro-5-methyl-1-oxo-1,2-dihydroisoquinolin-3-yl)propyl)piperazin-1-yl)benzonitrile]
7 | < 50 | – | N#Cc1ccc(N2CCN(C(=O)CCc3cc4ccc(F)cc4c(=O)[nH]3)CC2)cc1 [Example 94, 4-(4-(3-(7-fluoro-1-oxo-1,2-dihydroisoquinolin-3-yl)propanoyl)piperazin-1-yl)benzonitrile]
8 | < 50 | – | O=C(CCc1cc2ccc(F)cc2c(=O)[nH]1)N1CCN(c2cccc(F)c2)CC1 [Example 120, 7-fluoro-3-(3-(4-(3-fluorophenyl)piperazin-1-yl)-3-oxopropyl)isoquinolin-1(2H)-one]
9 | < 50 | – | Cc1ccc(F)c2c(=O)[nH]c(CCC(=O)N3CCN(C(=O)C4CCC4)CC3)cc12 [Example 179, 3-(3-(4-(cyclobutanecarbonyl)piperazin-1-yl)-3-oxopropyl)-8-fluoro-5-methylisoquinolin-1(2H)-one]
10 | < 50 | – | COC(=O)c1ccc(NC2CCN(C(=O)CCc3cc4c(C)cc(F)cc4c(=O)[nH]3)CC2)cc1 [Example 267, methyl 4-((1-(3-(7-fluoro-5-methyl-1-oxo-1,2-dihydroisoquinolin-3-yl)propanoyl)piperidin-4-yl)amino)benzoate]
11 | < 50 | – | Cc1cc(F)cc2c(=O)[nH]c(CCC(=O)N3CC=C(c4cc(C#N)ccc4F)CC3)cc12 [Example 160, 4-fluoro-3-(1-(3-(7-fluoro-5-methyl-1-oxo-1,2-dihydroisoquinolin-3-yl)propanoyl)-1,2,3,6-tetrahydropyridin-4-yl)benzonitrile]
12 | < 50 | – | Cc1ccc(F)c2c(=O)[nH]c(CCC(=O)N3CCN(c4cc(F)ccc4C#N)CC3)cc12 [Example 134, 4-fluoro-2-(4-(3-(8-fluoro-5-methyl-1-oxo-1,2-dihydroisoquinolin-3-yl)propanoyl)piperazin-1-yl)benzonitrile]
13 | < 50 | – | Cc1cc(F)cc2c(=O)[nH]c(CCC(=O)N3CCN(c4cc(F)cc(C#N)c4)CC3)cc12 [Example 166, 3-fluoro-5-(4-(3-(7-fluoro-5-methyl-1-oxo-1,2-dihydroisoquinolin-3-yl)propanoyl)piperazin-1-yl)benzonitrile]
14 | < 50 | – | CN(c1ccc(C#N)cc1)C1CCN(C(=O)CCc2cc3cccc(F)c3c(=O)[nH]2)CC1 [Example 257, 4-((1-(3-(8-fluoro-1-oxo-1,2-dihydroisoquinolin-3-yl)propanoyl)piperidin-4-yl)(methyl)amino)benzonitrile]
15 | < 50 | – | Cc1ccc(F)c2c(=O)[nH]c(CCCN3CCN(C(=O)c4cccc(F)c4)CC3)cc12 [Example 65, 8-fluoro-3-(3-(4-(3-fluorobenzoyl)piperazin-1-yl)propyl)-5-methylisoquinolin-1(2H)-one]
16 | < 50 | 0.91 | O=C(CCc1cc2ccc(F)cc2c(=O)[nH]1)N1CC=C(c2ccc(F)cn2)CC1 [Example 103, 7-fluoro-3-(3-(5-fluoro-3′,6′-dihydro-[2,4′-bipyridine]-1′(2′H)-yl)-3-oxopropyl)isoquinolin-1(2H)-one]
17 | < 50 | – | Cc1cc(F)cc2c(=O)[nH]c(CCC(=O)N3CC=C(c4ccc(F)cc4F)CC3)cc12 [Example 162, 3-(3-(4-(2,4-difluorophenyl)-3,6-dihydropyridin-1(2H)-yl)-3-oxopropyl)-7-fluoro-5-methylisoquinolin-1(2H)-one]
18 | < 50 | – | O=C(CCc1cc2cccc(F)c2c(=O)[nH]1)N1CCN(C(=O)C2CC2)CC1 [Example 182, 3-(3-(4-(cyclopropanecarbonyl)piperazin-1-yl)-3-oxopropyl)-8-fluoroisoquinolin-1(2H)-one]
19 | < 50 | – | Cc1ccc(F)c2c(=O)[nH]c(CCC(=O)N3CCN(c4ccc(C#N)c(F)c4)CC3)cc12 [Example 126, 2-fluoro-4-(4-(3-(8-fluoro-5-methyl-1-oxo-1,2-dihydroisoquinolin-3-yl)propanoyl)piperazin-1-yl)benzonitrile]
20 | 50 to 80 | – | Cc1ccc(F)c2c(=O)[nH]c(CCCN3CCN(c4ccc(C#N)cc4F)CC3)cc12 [Example 26, 3-fluoro-4-(4-(3-(8-fluoro-5-methyl-1-oxo-1,2-dihydroisoquinolin-3-yl)propyl)piperazin-1-yl)benzonitrile]
21 | < 50 | – | O=C(CCc1cc2ccc(F)cc2c(=O)[nH]1)N1CC=C(c2ccnc(F)c2)CC1 [Example 121, 7-fluoro-3-(3-(2′-fluoro-3,6-dihydro-[4,4′-bipyridine]-1(2H)-yl)-3-oxopropyl)isoquinolin-1(2H)-one]
22 | < 50 | – | O=C(CCc1cc2ccc(F)cc2c(=O)[nH]1)N1CCN(C(=O)C2CCCC2)CC1 [Example 176, 3-(3-(4-(cyclopentanecarbonyl)piperazin-1-yl)-3-oxopropyl)-7-fluoroisoquinolin-1(2H)-one]
23 | < 50 | – | Cc1cc(F)cc2c(=O)[nH]c(CCC(=O)N3CCN(c4ccc(C#N)cc4F)CC3)cc12 [Example 154, 3-fluoro-4-(4-(3-(7-fluoro-5-methyl-1-oxo-1,2-dihydroisoquinolin-3-yl)propanoyl)piperazin-1-yl)benzonitrile]
24 | < 50 | – | Cc1ccc(F)c2c(=O)[nH]c(CCC(=O)N3CCN(c4ccc(F)c(C#N)c4)CC3)cc12 [Example 135, 2-fluoro-5-(4-(3-(8-fluoro-5-methyl-1-oxo-1,2-dihydroisoquinolin-3-yl)propanoyl)piperazin-1-yl)benzonitrile]
25 | < 50 | – | Cc1cc(F)cc2c(=O)[nH]c(CCC(=O)N3CCN(c4ccc(C#N)c(F)c4)CC3)cc12 [Example 153, 2-fluoro-4-(4-(3-(7-fluoro-5-methyl-1-oxo-1,2-dihydroisoquinolin-3-yl)propanoyl)piperazin-1-yl)benzonitrile]
26 | < 50 | – | N#Cc1ccc(N2CCN(C(=O)CCc3cc4ccc(F)cc4c(=O)[nH]3)CC2)cn1 [Example 97, 5-(4-(3-(7-fluoro-1-oxo-1,2-dihydroisoquinolin-3-yl)propanoyl)piperazin-1-yl)picolinonitrile]
27 | < 50 | – | Cc1ccc(F)c2c(=O)[nH]c(CCCN3CCN(c4nccs4)CC3)cc12 [Example 29, 8-fluoro-5-methyl-3-(3-(4-(thiazole-2-yl)piperazin-1-yl)propyl)isoquinolin-1(2H)-one]

Row | SMILES | inhibition at 0.001 µM [%] | IC50 (PARP-1 enzyme activity) [nM]
28 | N#Cc1ccc(C2=CCN(CCCc3cc4ncccc4c(=O)[nH]3)CC2)nc1 [Example 235, 1′-(3-(5-oxo-5,6-dihydro-1,6-naphthyridin-7-yl)propyl)-1′,2′,3′,6′-tetrahydro-[2,4′-bipyridine]-5-carbonitrile] | < 50 | –
29 | N#Cc1ccc(N2CC3CCC(C2)N3C(=O)CCc2cc3cccc(F)c3c(=O)[nH]2)nc1 [Example 206, 6-(8-(3-(8-fluoro-1-oxo-1,2-dihydroisoquinolin-3-yl)propanoyl)-3,8-diazabicyclo[3.2.1]octan-3-yl)nicotinonitrile] | < 50 | –
30 | O=c1[nH]c(CCCN2C3CCC2CN(c2ccc(F)cc2)C3)cc2ncccc12 [Example 230] | < 50 | –
31 | Cc1ccc(F)c2c(=O)[nH]c(CCCN3C4CCC3CN(c3ccc(F)nc3)C4)cc12 [Example 202, 8-fluoro-3-(3-(3-(6-fluoropyridin-3-yl)-3,8-diazabicyclo[3.2.1]octan-8-yl)propyl)-5-methylisoquinolin-1(2H)-one] | < 50 | –
